From patent US4057545A, “Imidazole derivatives” (Nordmark-Werke GmbH Hamburg, priority 1975, dated 1977) come the findings set out here.

One assay has as its system Staphylococcus aureus. Briefly: series dilution test in vitro, Staph. aur. It counts as cell-based. Set-up: key: .phi.: complete inhibition; (+): strong inhibition; +: moderate inhibition; ++: slight inhibition; +++: no inhibition. The note with it: dilution 1: 10,000. As for the experimental part:
(§1) The new compounds and their salts are valuable agents for controlling fungi and yeasts and, in addition, are also active against several types of bacteria. To test the antimicrobial activity of the new compounds in vitro, they were tested in a series dilution test with dilutions of from 1:10,000 to 1:100,000 for their effectiveness against the germs Staphylococcus aureus, Trichophyton mentagrophytes and Candida albicans.
For the molecule `Clc1ccc(C(=Cc2ccc(Br)cc2)Cn2ccnc2)c(Cl)c1` [n=0, R1=4-Cl, R2=2-Cl, R3=4-Br, R4=H], the “inhibition of Staph. aur., 1st value” is on record as “.phi”.
Same read-out and setting: the entry for `Clc1ccc(C=C2c3ccccc3CC2n2ccnc2)cc1` (stereo not drawn) [n=1, R1=H, R2=H, R3=H, R4=4-Cl] is “.phi”; for `Clc1ccc(C(=Cc2ccc(Br)cc2)Cn2ccnc2)cc1` [n=0, R1=4-Cl, R2=H, R3=4-Br, R4=H] it is “.phi”.
Still for that read-out and setting: the entry for `Clc1ccc(C=C2c3ccccc3CCC2n2ccnc2)cc1` (stereo not drawn) [n=2, R1=H, R2=H, R3=H, R4=4-Cl] is “.phi”; for `Brc1ccc(C=C(Cn2ccnc2)c2ccc(Br)cc2)cc1` [n=0, R1=4-Br, R2=H, R3=4-Br, R4=H] it is “.phi”.
Turning to `Clc1ccc(C=C2c3cc(Cl)ccc3CC2n2ccnc2)cc1` (stereo not drawn) [n=1, R1=6-Cl, R2=H, R3=4-Cl, R4=H], the “inhibition of Staph. aur., 1st value” is “.phi”.
On the same count and under the same terms, the entry for `Clc1ccc(C(=Cc2ccc(Cl)c(Cl)c2)Cn2ccnc2)c(Cl)c1` [n=0, R1=4-Cl, R2=2-Cl, R3=4-Cl, R4=3-Cl] is “.phi”; for `Clc1ccc(C=C(Cn2ccnc2)c2ccc(Cl)cc2)cc1` [n=0, R1=4-Cl, R2=H, R3=4-Cl, R4=H] it is “.phi”.
Consider `Clc1ccc(C=C2c3ccccc3CC2n2ccnc2)cc1Cl` (stereo not drawn) [n=1, R1=H, R2=H, R3=3-Cl, R4=4-Cl], for which the “inhibition of Staph. aur., 1st value” is “.phi”.
The same measure, in the same setting: the entry for `C(=C1c2ccccc2CCC1n1ccnc1)c1ccccc1` (stereo not drawn) [n=2, R1=H, R2=H, R3=H, R4=H] is “.phi”.

Still in this assay, the particulars now being: dilution 1: 100,000.
For the molecule `Clc1ccc(C(=Cc2ccc(Br)cc2)Cn2ccnc2)c(Cl)c1` [n=0, R1=4-Cl, R2=2-Cl, R3=4-Br, R4=H], the “inhibition of Staph. aur., 2nd value” is recorded as “.phi”.
As for `Clc1ccc(C=C2c3ccccc3CC2n2ccnc2)cc1` (stereo not drawn) [n=1, R1=H, R2=H, R3=H, R4=4-Cl], the “inhibition of Staph. aur., 2nd value” is given as “.phi”.
Same read-out and setting: the entry for `Clc1ccc(C(=Cc2ccc(Br)cc2)Cn2ccnc2)cc1` [n=0, R1=4-Cl, R2=H, R3=4-Br, R4=H] is “.phi”; for `Clc1ccc(C=C2c3ccccc3CCC2n2ccnc2)cc1` (stereo not drawn) [n=2, R1=H, R2=H, R3=H, R4=4-Cl] it is “.phi”.
Still for that read-out and setting: the entry for `Brc1ccc(C=C(Cn2ccnc2)c2ccc(Br)cc2)cc1` [n=0, R1=4-Br, R2=H, R3=4-Br, R4=H] is “.phi”; for `Clc1ccc(C=C2c3cc(Cl)ccc3CC2n2ccnc2)cc1` (stereo not drawn) [n=1, R1=6-Cl, R2=H, R3=4-Cl, R4=H] it is “.phi”.
Still for that read-out and setting: the entry for `Clc1ccc(C(=Cc2ccc(Cl)c(Cl)c2)Cn2ccnc2)c(Cl)c1` [n=0, R1=4-Cl, R2=2-Cl, R3=4-Cl, R4=3-Cl] is “.phi”.
For the molecule `Clc1ccc(C=C(Cn2ccnc2)c2ccc(Cl)cc2)cc1` [n=0, R1=4-Cl, R2=H, R3=4-Cl, R4=H], the “inhibition of Staph. aur., 2nd value” was “.phi”.
Same read-out and setting: the entry for `Clc1ccc(C=C2c3ccccc3CC2n2ccnc2)cc1Cl` (stereo not drawn) [n=1, R1=H, R2=H, R3=3-Cl, R4=4-Cl] is “.phi”; for `C(=C1c2ccccc2CCC1n1ccnc1)c1ccccc1` (stereo not drawn) [n=2, R1=H, R2=H, R3=H, R4=H] it is “.phi”.

In the next assay the test system is Candida albicans. Kind of assay: series dilution test in vitro, Cand. alb. The note with it: dilution 1: 10,000. It counts as cell-based. Set-up: key: .phi.: complete inhibition; (+): strong inhibition; +: moderate inhibition; ++: slight inhibition; +++: no inhibition. On the procedure: as §1
Consider `Clc1ccc(C(=Cc2ccc(Br)cc2)Cn2ccnc2)c(Cl)c1` [n=0, R1=4-Cl, R2=2-Cl, R3=4-Br, R4=H], for which the “inhibition of Cand. alb., 1st value” was “.phi”.
Same read-out and setting: the entry for `Clc1ccc(C=C2c3ccccc3CC2n2ccnc2)cc1` (stereo not drawn) [n=1, R1=H, R2=H, R3=H, R4=4-Cl] is “.phi”; for `Clc1ccc(C(=Cc2ccc(Br)cc2)Cn2ccnc2)cc1` [n=0, R1=4-Cl, R2=H, R3=4-Br, R4=H] it is “.phi”; for `Clc1ccc(C=C2c3ccccc3CCC2n2ccnc2)cc1` (stereo not drawn) [n=2, R1=H, R2=H, R3=H, R4=4-Cl] it is “.phi”.
For the molecule `Brc1ccc(C=C(Cn2ccnc2)c2ccc(Br)cc2)cc1` [n=0, R1=4-Br, R2=H, R3=4-Br, R4=H], the “inhibition of Cand. alb., 1st value” is listed as “.phi”.
As for `Clc1ccc(C=C2c3cc(Cl)ccc3CC2n2ccnc2)cc1` (stereo not drawn) [n=1, R1=6-Cl, R2=H, R3=4-Cl, R4=H], the “inhibition of Cand. alb., 1st value” was “.phi”.
The same measure, in the same setting: the entry for `Clc1ccc(C(=Cc2ccc(Cl)c(Cl)c2)Cn2ccnc2)c(Cl)c1` [n=0, R1=4-Cl, R2=2-Cl, R3=4-Cl, R4=3-Cl] is “.phi”; for `Clc1ccc(C=C(Cn2ccnc2)c2ccc(Cl)cc2)cc1` [n=0, R1=4-Cl, R2=H, R3=4-Cl, R4=H] it is “.phi”; for `Clc1ccc(C=C2c3ccccc3CC2n2ccnc2)cc1Cl` (stereo not drawn) [n=1, R1=H, R2=H, R3=3-Cl, R4=4-Cl] it is “.phi”.
On the same count and under the same terms, the entry for `C(=C1c2ccccc2CCC1n1ccnc1)c1ccccc1` (stereo not drawn) [n=2, R1=H, R2=H, R3=H, R4=H] is “.phi”.

Staying with this assay, now noted: dilution 1: 100,000.
On to `Clc1ccc(C(=Cc2ccc(Br)cc2)Cn2ccnc2)c(Cl)c1` [n=0, R1=4-Cl, R2=2-Cl, R3=4-Br, R4=H], for which the “inhibition of Cand. alb., 2nd value” is “++”.
Same read-out and setting: the entry for `Clc1ccc(C=C2c3ccccc3CC2n2ccnc2)cc1` (stereo not drawn) [n=1, R1=H, R2=H, R3=H, R4=4-Cl] is “++”; for `Clc1ccc(C(=Cc2ccc(Br)cc2)Cn2ccnc2)cc1` [n=0, R1=4-Cl, R2=H, R3=4-Br, R4=H] it is “++”; for `Clc1ccc(C=C2c3ccccc3CCC2n2ccnc2)cc1` (stereo not drawn) [n=2, R1=H, R2=H, R3=H, R4=4-Cl] it is “++”.
The same measure, in the same setting: the entry for `Brc1ccc(C=C(Cn2ccnc2)c2ccc(Br)cc2)cc1` [n=0, R1=4-Br, R2=H, R3=4-Br, R4=H] is “++”.
Take `Clc1ccc(C=C2c3cc(Cl)ccc3CC2n2ccnc2)cc1` (stereo not drawn) [n=1, R1=6-Cl, R2=H, R3=4-Cl, R4=H]: the “inhibition of Cand. alb., 2nd value” is on record as “++”.
In the case of `Clc1ccc(C(=Cc2ccc(Cl)c(Cl)c2)Cn2ccnc2)c(Cl)c1` [n=0, R1=4-Cl, R2=2-Cl, R3=4-Cl, R4=3-Cl], the “inhibition of Cand. alb., 2nd value” is on record as “++”.
On the same count and under the same terms, the entry for `Clc1ccc(C=C(Cn2ccnc2)c2ccc(Cl)cc2)cc1` [n=0, R1=4-Cl, R2=H, R3=4-Cl, R4=H] is “(+ )”.
On the same count and under the same terms, the entry for `Clc1ccc(C=C2c3ccccc3CC2n2ccnc2)cc1Cl` (stereo not drawn) [n=1, R1=H, R2=H, R3=3-Cl, R4=4-Cl] is “++”; for `C(=C1c2ccccc2CCC1n1ccnc1)c1ccccc1` (stereo not drawn) [n=2, R1=H, R2=H, R3=H, R4=H] it is “+++”.

The next assay has as its system Trichophyton mentagrophytes. Kind of assay: series dilution test in vitro, Trichoph. It counts as cell-based. Set-up: key: .phi.: complete inhibition; (+): strong inhibition; +: moderate inhibition; ++: slight inhibition; +++: no inhibition. The note with it: dilution 1: 10,000. As for the experimental part: as §1
As to `Clc1ccc(C(=Cc2ccc(Br)cc2)Cn2ccnc2)c(Cl)c1` [n=0, R1=4-Cl, R2=2-Cl, R3=4-Br, R4=H], the “inhibition of Trichoph., 1st value” is recorded as “.phi”.
On the same count and under the same terms, the entry for `Clc1ccc(C=C2c3ccccc3CC2n2ccnc2)cc1` (stereo not drawn) [n=1, R1=H, R2=H, R3=H, R4=4-Cl] is “.phi”; for `Clc1ccc(C(=Cc2ccc(Br)cc2)Cn2ccnc2)cc1` [n=0, R1=4-Cl, R2=H, R3=4-Br, R4=H] it is “.phi”.
The same measure, in the same setting: the entry for `Clc1ccc(C=C2c3ccccc3CCC2n2ccnc2)cc1` (stereo not drawn) [n=2, R1=H, R2=H, R3=H, R4=4-Cl] is “.phi”; for `Brc1ccc(C=C(Cn2ccnc2)c2ccc(Br)cc2)cc1` [n=0, R1=4-Br, R2=H, R3=4-Br, R4=H] it is “.phi”; for `Clc1ccc(C=C2c3cc(Cl)ccc3CC2n2ccnc2)cc1` (stereo not drawn) [n=1, R1=6-Cl, R2=H, R3=4-Cl, R4=H] it is “.phi”.
As for `Clc1ccc(C(=Cc2ccc(Cl)c(Cl)c2)Cn2ccnc2)c(Cl)c1` [n=0, R1=4-Cl, R2=2-Cl, R3=4-Cl, R4=3-Cl], the “inhibition of Trichoph., 1st value” is listed as “.phi”.
Same read-out and setting: the entry for `Clc1ccc(C=C(Cn2ccnc2)c2ccc(Cl)cc2)cc1` [n=0, R1=4-Cl, R2=H, R3=4-Cl, R4=H] is “.phi”; for `Clc1ccc(C=C2c3ccccc3CC2n2ccnc2)cc1Cl` (stereo not drawn) [n=1, R1=H, R2=H, R3=3-Cl, R4=4-Cl] it is “.phi”.
With `C(=C1c2ccccc2CCC1n1ccnc1)c1ccccc1` (stereo not drawn) [n=2, R1=H, R2=H, R3=H, R4=H], the “inhibition of Trichoph., 1st value” is given as “.phi”.

Still in this assay, the particulars now being: dilution 1: 100,000.
Turning to `Clc1ccc(C(=Cc2ccc(Br)cc2)Cn2ccnc2)c(Cl)c1` [n=0, R1=4-Cl, R2=2-Cl, R3=4-Br, R4=H], the “inhibition of Trichoph., 2nd value” is listed as “.phi”.
On the same count and under the same terms, the entry for `Clc1ccc(C=C2c3ccccc3CC2n2ccnc2)cc1` (stereo not drawn) [n=1, R1=H, R2=H, R3=H, R4=4-Cl] is “.phi”.
Still for that read-out and setting: the entry for `Clc1ccc(C(=Cc2ccc(Br)cc2)Cn2ccnc2)cc1` [n=0, R1=4-Cl, R2=H, R3=4-Br, R4=H] is “.phi”; for `Clc1ccc(C=C2c3ccccc3CCC2n2ccnc2)cc1` (stereo not drawn) [n=2, R1=H, R2=H, R3=H, R4=4-Cl] it is “.phi”; for `Brc1ccc(C=C(Cn2ccnc2)c2ccc(Br)cc2)cc1` [n=0, R1=4-Br, R2=H, R3=4-Br, R4=H] it is “.phi”.
Same read-out and setting: the entry for `Clc1ccc(C=C2c3cc(Cl)ccc3CC2n2ccnc2)cc1` (stereo not drawn) [n=1, R1=6-Cl, R2=H, R3=4-Cl, R4=H] is “.phi”; for `Clc1ccc(C(=Cc2ccc(Cl)c(Cl)c2)Cn2ccnc2)c(Cl)c1` [n=0, R1=4-Cl, R2=2-Cl, R3=4-Cl, R4=3-Cl] it is “.phi”.
For the molecule `Clc1ccc(C=C(Cn2ccnc2)c2ccc(Cl)cc2)cc1` [n=0, R1=4-Cl, R2=H, R3=4-Cl, R4=H], the “inhibition of Trichoph., 2nd value” is listed as “.phi”.
On the same count and under the same terms, the entry for `Clc1ccc(C=C2c3ccccc3CC2n2ccnc2)cc1Cl` (stereo not drawn) [n=1, R1=H, R2=H, R3=3-Cl, R4=4-Cl] is “.phi”.
Consider `C(=C1c2ccccc2CCC1n1ccnc1)c1ccccc1` (stereo not drawn) [n=2, R1=H, R2=H, R3=H, R4=H], for which the “inhibition of Trichoph., 2nd value” is recorded as “.phi”.
